In patent US20090253771A1, “INHIBITION OF GLIOTOXIN” (priority 2006, published 2009):
Where a SMILES comes first, the peptide text is derived from it. The star is where a group is joined. Cbz = O=C(OCc1ccccc1)*; CH2F = FC*

Tests used:
[1] = test system: mitochondria isolated from MEFs or FDMs; experiment: Cytochrome c release from isolated mitochondria; format: biochemical, mouse
Description: 8×10^7 MEFs or FDMs were centrifuged and washed once in PBS. The cell pellets were resuspended in 500 μl MSH-Buffer (210 mM mannitol; 70 mM sucrose; 20 mM HEPES; 1 mM EDTA; pH 7,5; 100 μM PMSF; 400 ng/ml pepstatin; 10 μg/ml leupeptin; 10 μg/ml aprotinin and 5 μg/ml cytochalasin B). The resuspended cell pellet was incubated on ice for 15 min before the cells were broken by passaging 25 times through a 23-gauge needle. The lysate was centrifuged at 500×g for 5 min to remove cell debris and nuclei. A crude mitochondrial pellet was then obtained by centrifugation at 10,000×g for 15 min and resuspended in MSH-Buffer. The isolated mitochondria were incubated with different concentrations of GT (10 μM, 20 μM and 50 μM), or 40 nM of recombinant tBid as a positive control at 37° C. for 4 hr. Following incubation, the mitochondria were pelleted, and both, pellet and supernatant were tested for cytochrome c release by SDS-PAGE.

Bak = target: T1, Bak (Mus musculus, UniProt O08734); experiment: Conformational change of Bak (FACS, N-terminus-specific antibody); format: cell-based; conditions: 4 h; for effect on GT-induced N-terminal opening of Bak: 100 μM Z-VAD.fmk or 15 mM NAC or MnTBAP
T1 construct: endogenous in cells; host or cells: SV40-transformed mouse embryonic fibroblasts (wt, Bid-/-; Bak-/-xBax-/- as negative control)
T1 sequence (O08734 1-209): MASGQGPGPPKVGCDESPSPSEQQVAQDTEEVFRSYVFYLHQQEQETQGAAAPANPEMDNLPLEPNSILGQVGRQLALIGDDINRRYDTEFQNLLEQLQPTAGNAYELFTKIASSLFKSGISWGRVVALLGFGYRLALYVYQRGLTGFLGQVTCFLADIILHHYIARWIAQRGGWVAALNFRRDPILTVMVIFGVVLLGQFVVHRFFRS
Description: (§1) MEFs were fixed in 4% PFA, permeabilized with 0.1% saponin in PBS/5% fetal calf serum (FCS) and incubated with 2 μg/ml rabbit polyclonal anti-Bak (NT, Upstate Biotechnology) 5 μg/ml rabbit polyclonal anti-Bax (NT, Upstate Biotechnology) or 5 μg/ml rabbit purified IgG (control). After two washes with 0.1% saponin in PBS, the cells were incubated with anti rabbit-FITC antibody in 0.1% saponin/PBS/5% FCS, washed twice in 0.1% saponin/PBS, resuspended in 1% PFA/PBS and analysed by FACS with a FACScan (BD) and CellQuest® software.

[2] = test system: mouse embryonic fibroblasts (MEFs); experiment: Nuclear translocation of AIF (confocal microscopy); format: cell-based; conditions: 1 μM GT, 4 h
Description: (§2) Cytochrome c release was quantified by FACS analysis as recently described [Waterhouse, 2003]. Briefly, 1×10^6 of MEFs were mildly permeabilized with 25 μg/ml digitonin plus 100 mM KCl on ice for 5 min. This lead to the cellular loss of cytosolic cytochrome c. Cells were washed once with cold PBS, fixed in 4% PFA, permeabilized with 0.05% saponin and 3% BSA and then incubated with the anti-cytochrome c mAb 6H2.B4 (BD Pharmingen) or mouse IgG isotype control (Jackson) followed by anti-mouse-FITC secondary antibody (Jackson). The cells were resuspended in 100 μl PFA in PBS and analysed by FACS with a FACScan (BD) and CellQuest® software. For the analysis of the nuclear translocation of AIF, cells were fixed, mounted on poly-L-lysine coverslides and stained with a rabbit polyclonal antiAIF antibody (Sigma) as described [Pardo, 2001]. Afterwards the cells were analysed by confocal microscopy using a Leica SP2 confocal microscope and Imaris® software.

[3] = test system: mouse embryonic fibroblasts (MEFs); experiment: Cell death (trypan blue exclusion) and cell detachment by microscopic inspection; format: cell-based
Description: (§3) Gliotoxin (GT) was purified from Penicillium terlikowskii as described [Waring, 1988]. For apoptosis induction, 4×10^5 MEFs were incubated with different concentrations of GT or staurosporine (Sigma) for 4 h and apoptosis assays were performed as described below. In some cases the general caspase inhibitor Ac-ZVAD-fmk (Bachem) or the ROS scavengers N-acetylcysteine (NAC) (Sigma) or MnTBAP (Calbiochem) were added as described [Pardo, 2004]. To test the inhibitory potency of Ac-ZVAD-.fmk, MBL-2. Fas cells were incubated with anti-Fas mAb Jo-2 (1 μg/ml) for 24 h in the presence or absence of 100 μM of the caspase inhibitor and cell death was analysed by trypan blue exclusion. Nuclei were stained with 10 μg/ml of Hoechst 33342 (Molecular Probes).

Fas-negative cells = experiment: GT-induced pro-apoptotic processes in Fas-negative cells (cell adhesion / cell death, neutral red); format: cell-based
Description: This pro-apoptotic activity may be inhibited by GT-inhibitors, e.g. anti-GT-antibodies. The degree of cell adhesion and/or cell death may be determined by standard methods. For example, the cells may be labelled with a suitable dye, e.g. neutral red, allowed to adhere and incubated subsequently with GT in the presence of a test compound. After an appropriate incubation time, the non-adherent cells may be removed and the remaining adherent cells and/or the removed cells may be determined. For example, the dye neutral red may be released from cells by […]/ethanol. Non-adherent cells equating with cell death may be quantitatively determined, e.g. with an optical detection method, preferably by measuring the absorbance at 540 nm according to standard methods, e.g. in a microplate reader.
Screening for antifungal agents capable of inhibiting the interaction between GT and Bak can be performed by means of the methylcholanthrene-induced cell line MC.Fas^−/− (date of deposition at DSMZ: 4 May 2006) stained with the vital dye Neutral Red. […] Cell loss equates with cell death resulting from GT-induced pro-apoptotic processes, and is quantified automatically by loss of absorbance at 540 nm using a microplate reader.

[4] = test system: mouse embryonic fibroblasts (MEFs); experiment: Gliotoxin-induced apoptosis in MEFs: nuclear fragmentation (Hoechst 33342), PS exposure (annexin V-FITC) and PI uptake; format: cell-based; conditions: 1 μM GT, 4 h
Description: as §3
(§4) Phosphatidylserine (PS) exposure and propidium iodide (PI) uptake was analysed by FACS or fluorescence microscopy as described [Pardo, 2004] using the annexin V-FITC kit from BD Pharmingen. The mitochondrial membrane potential was measured with the fluorescent probe 3,3′-dihexyloxacarbocyanine iodide (DiOC6(3), Molecular Probes) and ROS generation with 2-hydroxiethidine (2-HE, Molecular Probes) as described [Pardo, 2004].

[5] = test system: mouse embryonic fibroblasts (MEFs); experiment: Cytochrome c release on cells (FACS); format: cell-based; conditions: 1 μM GT, 4 h
Description: as §2

caspase-3 = experiment: Caspase-3 activation (FACS, antibody against the active form); format: cell-based, mouse; conditions: 1 μM GT, 4 h; wt and Bax−/− MEFs
Description: Cells were fixed with 4% paraformaldehyde (PFA) and incubated with a monoclonal antibody against the active form of caspase-3 (clone C92605, BD Pharmingen). Following incubation with a FITC-labeled secondary antibody, the cells were analyzed by FACS as described [Pardo, 2004].

[6] = test system: mouse embryonic fibroblasts (MEFs); experiment: Mitochondrial membrane potential (DiOC6(3)) and ROS generation (2-HE) by FACS; format: cell-based; conditions: 1 μM GT, 4 h; for effect on GT-induced ROS production: 15 mM scavenger
Description: as §3, §4

MBL-2.Fas cells = experiment: Anti-Fas mAb Jo-2 induced cell death (trypan blue exclusion), test of the caspase inhibitor; format: cell-based; conditions: 1 μg/ml Jo-2, 24 h; 100 μM inhibitor
Description: as §3

Bax = experiment: Conformational change of Bax (FACS, N-terminus-specific antibody); format: cell-based, mouse; conditions: staurosporine 1 and 5 μM, 4 h, MEFs
Description: as §1

[7] = 10, 20 or 50 μM GT, 4 h, 37° C.

CN1C(=O)[C@]23CC4=CC=C[C@H](O)[C@H]4N2C(=O)[C@@]1(CO)SS3 [GT, Gliotoxin]
cytochrome c release from isolated mitochondria [1, 7]: dose-dependent manner
cytochrome c release from isolated mitochondria compared with 40 nM recombinant tBid [1, 7]: as efficient as that induced by recombinant tBid
cytochrome c release from isolated mitochondria ([1]; mitochondria from Bak−/− or Bak−/−×Bax−/− MEFs or FDMs): absent
N-terminal epitope exposure (conformational change) of Bak (Bak; 1 μM GT, wt MEFs): readily induce N-terminal epitope exposure in Bak
localization of AIF ([2]; Bak−/− and Bak−/−×Bax−/− MEFs): retained most of the AIF in the mitochondria
cells with cytosolic localization and nuclear translocation of AIF ([2]; wt and Bax−/− MEFs): a high portion
GT-mediated cell death (trypan blue exclusion) ([3]; increasing amounts of GT, 4 h, Bak−/− and Bak−/−×Bax−/− MEFs, not wt or Bax−/−): significantly reduced
GT-induced loss of cell adherence ([3]; increasing amounts of GT, 4 h, Bax- and/or Bak-deficient MEFs vs wt): only marginally, if at all, diminished
induction of pro-apoptotic processes resulting in loss of cell adhesion and cell death (Fas-negative cells): dose-dependent manner
apoptotic cells (PS exposed, annexin-V staining, without plasma membrane disruption) ([4]; wt MEFs): ~50%
nuclear fragmentation ([4]; wt MEFs, Hoechst 33342): nuclear fragmentation in the majority
number of annexin-V/PI positive cells vs mock treated cells ([4]; Bak−/− and Bak−/−×Bax−/− MEFs): did not
number of annexin-V/PI positive cells vs mock treated cells ([4]; wt, Bak−/− (so in the source) and Bid−/− MEFs): significantly increased
mitochondrial cytochrome c ([5]; Bak−/− or Bak−/−×Bax−/− MEFs): retained
mitochondrial cytochrome c ([5]; wt and Bax−/− MEFs): reduced
caspase-3 activation (caspase-3): significantly activated
ROS production ([6]; wt, Bax−/− and Bid−/− MEFs): parallel increase
mitochondrial membrane potential (Δψm) ([6]; wt, Bax−/− and Bid−/− MEFs): significant reduction

O=C(O)c1ccc(/C2=C3\C=CC(=N3)/C(c3ccc(C(=O)O)cc3)=c3/cc/c4[n]3[Mn]([Cl])[n]3c2ccc3/C(c2ccc(C(=O)O)cc2)=C2/C=CC(=N2)\C=4c2ccc(C(=O)O)cc2)cc1 [MnTBAP, Mn(III) tetrakis(4-benzoic acid)porphirin chloride]
effect on GT-induced N-terminal opening of Bak (Bak; wt MEFs, 1 μM GT): unaffected
effect on GT-induced ROS production ([6]; wt MEFs): significantly reduced

CC(=O)N[C@@H](CS)C(=O)O [NAC, N-acetylcysteine]
effect on GT-induced N-terminal opening of Bak (Bak; wt MEFs, 1 μM GT): unaffected
effect on GT-induced AIF release from mitochondria ([2]; wt MEFs, 15 mM NAC): greatly diminished
effect on GT-induced cell death (trypan blue staining) ([3]; wt MEFs, 1 μM GT, 4 h, NAC): totally inhibited
effect on GT-induced cell detachment ([3]; wt MEFs, 1 μM GT, 4 h, NAC): totally inhibited
effect on GT-induced PS exposure and plasma membrane permeability ([4]; wt MEFs, 15 mM NAC): abrogated
effect on GT-induced cytochrome c release from mitochondria ([5]; wt MEFs, 15 mM NAC): greatly diminished
effect on GT-induced reduction of the mitochondrial Δψm ([6]; wt MEFs, 15 mM NAC): abrogated
effect on GT-induced ROS production ([6]; wt MEFs): significantly reduced

COC(=O)C[C@H](NC(=O)[C@H](C)NC(=O)[C@@H](NC(=O)OCc1ccccc1)C(C)C)C(=O)CF [Z-VAD.fmk] (Cbz-Val-Ala-Asp(OMe)-CH2F)
effect on apoptosis induced by the anti-Fas antibody Jo-2 (MBL-2.Fas cells): blocked
effect on GT-induced N-terminal opening of Bak (Bak; wt MEFs, 1 μM GT): unaffected
effect on GT-induced AIF release ([2]; wt MEFs, 100 μM Z-VAD): not blocked
effect on GT-induced cell death ([3]; wt MEFs, GT 4 h, Z-VAD.fmk): reduced
effect on GT-induced annexin-V/PI staining ([4]; wt MEFs, 100 μM Z-VAD.fmk): reduced
effect on GT-induced cytochrome c release ([5]; wt MEFs, 100 μM Z-VAD): not blocked
effect on loss of the mitochondrial Δψm in GT-treated cells ([6]; wt MEFs, 100 μM Z-VAD.fmk): did not prevent

CN[C@@H]1C[C@H]2O[C@@](C)([C@@H]1OC)n1c3ccccc3c3c4c(c5c6ccccc6n2c5c31)C(=O)NC4 [staurosporine]
activation of Bak (Bak; staurosporine 1 and 5 μM, MEFs): activates both Bax and Bak
N-terminal conformational change of Bax (Bax): led to the expected N-terminal opening of Bax
